A short description of assay [1]: Inhibition of Saccharomyces cerevisiae homoisocitrate dehydrogenase.
Another assay has as its system Saccharomyces cerevisiae. Briefly: Activity of Saccharomyces cerevisiae homoisocitrate dehydrogenase.

Structures are written as SMILES.

This passage reports Ki, Km and kcat results from ChEMBL document CHEMBL1144678, “Thiahomoisocitrate: a highly potent inhibitor of homoisocitrate dehydrogenase involved in the alpha-aminoadipate pathway” (Bioorg Med Chem, 2008).

As usually defined, the Ki is the dissociation constant of the complex between target and ligand, obtained from inhibition or displacement. The Km is the concentration of substrate that gives half-maximal velocity. Broadly, the kcat is the number of substrate molecules converted per active site and unit of time at saturation.

`O=C(O)CS[C@H](C(=O)O)[C@@H](O)C(=O)O` displayed a Ki in assay [1] of 0.097 µM.

For the compound `O=C(O)CO[C@H](C(=O)O)[C@@H](O)C(=O)O`, the inhibition constant Ki in assay [1] was 10 µM. For the same compound, in the assay on Saccharomyces cerevisiae, the Km worked out at 20 µM and the kcat turned out to be 0.59 s⁻¹.

In the case of `O=C(O)CN[C@H](C(=O)O)[C@@H](O)C(=O)O`, in the assay with Saccharomyces cerevisiae, the Michaelis-Menten constant (Km) was 150 µM and the kcat stood at 2 s⁻¹.

`O=C(O)CSCC(=O)C(=O)O` showed a Ki in assay [1] of 12 µM.
